Results taken from patent US20090318492A1, “INDOLE COMPOUNDS HAVING C4-ACIDIC SUBSTITUENTS AND USE THEREOF AS PHOSPHOLIPASE-A2 INHIBITORS” (priority 2005, published 2009).

What was measured:
[1] = biological target: T1, human group 1B PLA2 (hps PLA2) (Homo sapiens, UniProt P04054); experiment: Example 8 fluorimetric PLA2 inhibition assay (PPyrPM), human enzyme; assay type: biochemical
T1 construct: made in house; host or cells: E. coli
Text: In this example, a fluorimetric assay procedure was used to evaluate the indole and indole-related compounds of the invention as inhibitors of group 1B phospholipase A2 (PLA2) from human, mouse and porcine. A description of this assay is found in articles: Leslie, C C and Gelb, M H (2004) Methods in Molecular Biology “Assaying phospholipase A2 activity”, 284:229-242; Singer, A G, et al. (2002) Journal of Biological Chemistry “Interfacial kinetic and binding properties of the complete set of human and mouse groups I, II, V, X, and XII secreted phospholipases A2”, 277:48535-48549, which are incorporated herein as references.
In general, this assay used a phosphatidylmethanol substrate with a pyrene fluorophore on the terminal end of the sn-2 fatty acyl chain. Without being bound by theory, close proximity of the pyrenes from neighboring phospholipids in a phospholipid vesicle caused the spectral properties to change relative to that of monomeric pyrene. Bovine serum albumin was present in the aqueous phase and captured the pyrene fatty acid when it is liberated from the glycerol backbone owing to the PLA2-catalyzed reaction. […] The effect of a given inhibitor and inhibitor concentration on human, mouse and porcine phospholipase was determined. […]
The following procedure was performed to evaluate the inhibitory potency of the evaluated compounds. • 1. […]

[2] = system: C57BL/6J mouse model of obesity; experiment: Example 10 mouse diet-induced obesity; assay type: in vivo; details: low fat control diet (D12328) with vs without test article
Text: The high-fat diet-fed C57BL/6J mouse model of human diabetes, originally introduced by Surwit and colleagues (Surwit, R S, et al. (1988) “Diet-induced type […] diabetes in C57BL/6J mice”, Diabetes 37: 1163-1167) is a widely accepted, clinically relevant, polygenic model that induces obesity, dyslipidemia, glucose- and insulin-resistance as early as 3 weeks after commencing the high fat diet (Winzell, M S and Ahren, B (2004) “The high-fat diet-fed mouse: a model for studying mechanisms and treatment of impaired glucose tolerance and type 2 diabetes”, Diabetes 53 Suppl 3: S215-219). This model was used to investigate the effects of indole and indole-related Test Articles. Avandia (rosiglitazone) was used as a control Test Article. […]
In these studies and the accompanying figures, Diet D12328 from Research Diets is referred to as the “Low Fat” or Control diet/chow, while Diet D12331 from Research Diets is referred to as the “High Fat” diet. […] The Test Article content was calculated such that ad libitum consumption by the animals would deliver doses (in mg of Test Article per kg animal weight per day) approximating those listed in Table 5.
Animals were maintained on the diets for up to eleven weeks. Body weights were recorded weekly. […] The serum was analyzed for glucose, total cholesterol, triglycerides (TG) and lysophospholipid (LPC) content. […]

[3] = Example 14 toxicology, daily oral gavage for 5 consecutive days; assay type: in vivo; details: mice
Text: The purpose of this study was to evaluate the toxicity of indole and indole-related Test Articles when administered daily via oral gavage to mice for 5 consecutive days.
Assessment of toxicity was based on mortality; clinical signs, body weight, food consumption, clinical pathology, and macroscopic pathology data.

T1 sequence (P04054 23-148): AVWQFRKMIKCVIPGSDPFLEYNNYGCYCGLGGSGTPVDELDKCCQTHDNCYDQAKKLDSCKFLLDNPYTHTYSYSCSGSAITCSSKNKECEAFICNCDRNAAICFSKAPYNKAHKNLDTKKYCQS

SMILES: Cc1c(C(=O)C(N)=O)c2c(OCC(=O)NS(=O)(=O)CCCC(=O)O)cccc2n1Cc1ccccc1 [ILY-IV-40, 4-[2-(3-Aminooxalyl-1-benzyl-2-methyl-1H-indol-4-yloxy)-acetylsulfamoyl]-butyric acid]
- IC50 [1]: 390 nM
- effect in animals fed a low fat control diet [2]: No or little effect
- clinical pathology differences between vehicle control group and treated groups attributable to test article [3]: no differences
